Consider two compounds from ChEMBL document CHEMBL4622894, “An effective method to produce 7-epitaxol from taxol in HCO3” (Bioorg Med Chem Lett, 2020).

Assay [1] concerns Saccharomyces cerevisiae. Description: Antifungal activity against Saccharomyces cerevisiae S288C assessed as fungal growth inhibition. Format: functional, organism-based.
For assay [2], the system named is Saccharomyces cerevisiae. Description: Antifungal activity against Saccharomyces cerevisiae AD18 assessed as fungal growth inhibition. Format: functional, organism-based.

The term IC50 denotes the point on the concentration scale where inhibition reaches its midpoint. For `CC(=O)O[C@H]1C(=O)[C@]2(C)[C@H](O)C[C@H]3OC[C@@]3(OC(C)=O)[C@H]2[C@H](OC(=O)c2ccccc2)[C@]2(O)C[C@H](OC(=O)[C@H](O)[C@@H](NC(=O)c3ccccc3)c3ccccc3)C(C)=C1C2(C)C`, the IC50 is more than 100 µM in assay [1] and 71.5 µM in assay [2].
For `CC(=O)O[C@H]1C(=O)[C@@]2(C)[C@H]([C@H](OC(=O)c3ccccc3)[C@]3(O)C[C@H](OC(=O)[C@H](O)[C@@H](NC(=O)c4ccccc4)c4ccccc4)C(C)=C1C3(C)C)[C@]1(OC(C)=O)CO[C@@H]1C[C@@H]2O` [PACLITAXEL] the same measures were more than 100 µM and more than 100 µM.
